We go through four compounds from the RepoRT retention time repository (doi:10.1016/j.foodchem.2021.129757).

Each structure is given as a SMILES string.

One data set can be described thus: RP, Agilent ZORBAX Eclipse XDB-C18, 100 × 2.1 mm, 1.8 µm, 50 °C, 0.4 mL/min, estimated dead time 0.55 min; A: water + 0.1% formic acid, pH 3; B: methanol + 0.1% formic acid, pH 3; gradient (min/%B) 0/2 10/100 14.5/100 14.51/2 16.5/2. The conditions noted are these: stereoisomer not certain.
In the case of `O=C(O)CNC(=O)c1ccccc1` [Hippuric acid], the LC retention time was 3.29 min.

A short description of a further data set: RP, Waters ACQUITY UPLC BEH C18, 100 × 2.1 mm, 1.7 µm, 65 °C, 0.4 mL/min, estimated dead time 0.55 min; A: water + 0.1% formic acid, pH 3; B: 80% acetonitrile + 20% acetone + 0.1% formic acid, pH 3; gradient (min/%B) 0/0 5/100 5.5/0 6/0. Conditions: stereoisomer not certain.
Take `COc1cc(C=CC(=O)O)cc(OC)c1O` [Sinapic acid]: the LC retention time is 2.1 min.

As for `COc1cc(C(=O)O)ccc1O` [Vanillic acid], the LC retention time was 1.8 min.

As to `O=C(O)c1ccc(O)c(O)c1` [Protocatechuic acid], the LC retention time is 1.48 min.

As to `O=C(O)CNC(=O)c1ccccc1` [Hippuric acid], the LC retention time was 1.86 min.

A further data set in a line: RP, Waters ACQUITY UPLC BEH Shield RP18, 100 × 2.1 mm, 1.7 µm, 30 °C, 0.6 mL/min, estimated dead time 0.37 min; A: water + 0.1% formic acid, pH 3; B: acetonitrile + 0.1% formic acid, pH 3; gradient (min/%B) 0/0 2/0 7/10 22/95 22.1/0 26/0. Conditions: stereoisomer not certain.
`COc1cc(C=CC(=O)O)cc(OC)c1O` [Sinapic acid]: the LC retention time is 12.5 min.

`COc1cc(C(=O)O)ccc1O` [Vanillic acid]: the LC retention time is 9.67 min.

With `O=C(O)c1ccc(O)c(O)c1` [Protocatechuic acid], the LC retention time is 5.2 min.

As to `O=C(O)CNC(=O)c1ccccc1` [Hippuric acid], the LC retention time is 6.13 min.

A short description of the next data set: RP, Waters ACQUITY UPLC BEH Shield RP18, 150 × 2.1 mm, 1.7 µm, 40 °C, 0.4 mL/min, estimated dead time 0.83 min; A: water + 0.1% formic acid, pH 3; B: acetonitrile + 0.1% formic acid, pH 3; gradient (min/%B) 0/0 30/50 31/100 37/100 37.1/0. Conditions: stereoisomer not certain.
Regarding `COc1cc(C=CC(=O)O)cc(OC)c1O` [Sinapic acid], the LC retention time is 11.1 min.

With `COc1cc(C(=O)O)ccc1O` [Vanillic acid], the LC retention time is 6.96 min.

Regarding `O=C(O)c1ccc(O)c(O)c1` [Protocatechuic acid], the LC retention time was 4.01 min.

For the compound `O=C(O)CNC(=O)c1ccccc1` [Hippuric acid], the LC retention time was 5.38 min.

The nature of the next data set: RP, Agilent ZORBAX RRHD Eclipse Plus C18, 50 × 2.1 mm, 1.8 µm, 30 °C, 0.4 mL/min, estimated dead time 0.28 min; A: water + 0.1% formic acid, pH 3; B: acetonitrile + 0.1% formic acid, pH 3; gradient (min/%B) 0/1 5/10 8/25 9.1/99 10/99 12/1. The conditions noted are these: stereoisomer not certain.
In the case of `COc1cc(C=CC(=O)O)cc(OC)c1O` [Sinapic acid], the LC retention time is 7.6 min.

On to `COc1cc(C(=O)O)ccc1O` [Vanillic acid], for which the LC retention time was 4.25 min.

Turning to `O=C(O)c1ccc(O)c(O)c1` [Protocatechuic acid], the LC retention time was 2.12 min.

On to `O=C(O)CNC(=O)c1ccccc1` [Hippuric acid], for which the LC retention time was 4.73 min.

Another data set can be described thus: RP, Agilent ZORBAX RRHD Eclipse Plus C18, 50 × 2.1 mm, 1.8 µm, 30 °C, 0.4 mL/min, estimated dead time 0.28 min; A: water + 0.1% formic acid, pH 3; B: acetonitrile + 0.1% formic acid, pH 3; gradient (min/%B) 0/1 5/10 8/25 9.1/99 10/99 12/99. Conditions: stereoisomer not certain.
In the case of `COc1cc(C=CC(=O)O)cc(OC)c1O` [Sinapic acid], the LC retention time is 7.99 min.

For the compound `COc1cc(C(=O)O)ccc1O` [Vanillic acid], the LC retention time is 1.83 min.

For the compound `O=C(O)c1ccc(O)c(O)c1` [Protocatechuic acid], the LC retention time is 1.38 min.

Consider `O=C(O)CNC(=O)c1ccccc1` [Hippuric acid], for which the LC retention time is 3.49 min.

The nature of the next data set: RP, Merck Supelco SUPELCOSIL LC-C18, 250 × 4.6 mm, 5 µm, 40 °C, 1 mL/min, estimated dead time 2.6 min; A: water + 0.1% trifluoroacetic acid, pH 2; B: acetonitrile + 0.1% trifluoroacetic acid, pH 2; gradient (min/%B) 0/5 45/35 47/75 49/35 50/5. Conditions: stereoisomer not certain.
Turning to `COc1cc(C=CC(=O)O)cc(OC)c1O` [Sinapic acid], the LC retention time is 23.3 min.

For `COc1cc(C(=O)O)ccc1O` [Vanillic acid], the LC retention time is 13.7 min.

As to `O=C(O)c1ccc(O)c(O)c1` [Protocatechuic acid], the LC retention time is 7.9 min.

The nature of a further data set: RP, Agilent InfinityLab Poroshell 120 EC-C18, 100 × 3 mm, 2.7 µm, 25 °C, 0.4 mL/min, estimated dead time 1.1 min; A: water + 0.1% formic acid, pH 3; B: acetonitrile + 0.1% formic acid, pH 3; gradient (min/%B) 0/5 10/25 20/40 24/90 25/90 26/5 30/5. Conditions: stereoisomer not certain.
For the compound `COc1cc(C=CC(=O)O)cc(OC)c1O` [Sinapic acid], the LC retention time was 9.78 min.

With `COc1cc(C(=O)O)ccc1O` [Vanillic acid], the LC retention time was 6.3 min.

For the compound `O=C(O)c1ccc(O)c(O)c1` [Protocatechuic acid], the LC retention time is 3.96 min.

`O=C(O)CNC(=O)c1ccccc1` [Hippuric acid]: the LC retention time was 6.09 min.

A short description of a further data set: RP, Phenomenex Synergi Hydro-RP, 250 × 2 mm, 4 µm, 25 °C, 0.2 mL/min, estimated dead time 2.5 min; A: water + 0.1% formic acid, pH 3; B: acetonitrile + 0.1% formic acid, pH 3; gradient (min/%B) 0/0.5 7/0.5 12/12.5 25/16.3 47/35 48/65 50/65 50.1/0.5. The conditions noted are these: stereoisomer not certain.
For `COc1cc(C=CC(=O)O)cc(OC)c1O` [Sinapic acid], the LC retention time is 33 min.

On to `COc1cc(C(=O)O)ccc1O` [Vanillic acid], for which the LC retention time is 22.1 min.

As for `O=C(O)c1ccc(O)c(O)c1` [Protocatechuic acid], the LC retention time was 16.4 min.

For `O=C(O)CNC(=O)c1ccccc1` [Hippuric acid], the LC retention time was 20.2 min.

The next data set can be described thus: RP, Waters Atlantis T3, 100 × 2.1 mm, 3 µm, 40 °C, 0.3 mL/min, estimated dead time 0.73 min; A: water + 0.1% trifluoroacetic acid, pH 2; B: acetonitrile + 0.1% trifluoroacetic acid, pH 2; gradient (min/%B) 0/10 1/10 6/40 7/50 8/50 14/70 16/80 20/10 25/10. Conditions: stereoisomer not certain.
Consider `COc1cc(C(=O)O)ccc1O` [Vanillic acid], for which the LC retention time was 10 min.

Consider `O=C(O)c1ccc(O)c(O)c1` [Protocatechuic acid], for which the LC retention time was 2.23 min.

The nature of a further data set: Other, Phenomenex Kinetex PFP, 100 × 4.6 mm, 2.6 µm, 35 °C, 1.5 mL/min, estimated dead time 0.71 min; A: water + 0.1% trifluoroacetic acid, pH 2; B: acetonitrile + 0.1% trifluoroacetic acid, pH 2; gradient (min/%B) 0/1 7/7.5 14/7.6 17/10 18.5/12 20/12.5 24/30 25/90 25.1/1 32/1. The conditions noted are these: stereoisomer not certain.
For the compound `COc1cc(C=CC(=O)O)cc(OC)c1O` [Sinapic acid], the LC retention time was 22.3 min.

Regarding `COc1cc(C(=O)O)ccc1O` [Vanillic acid], the LC retention time is 9.34 min.

As to `O=C(O)c1ccc(O)c(O)c1` [Protocatechuic acid], the LC retention time is 4.92 min.

Take `O=C(O)CNC(=O)c1ccccc1` [Hippuric acid]: the LC retention time is 7.15 min.
